Assay results: US20250034139A1, “AMINE COMPOUNDS HAVING ANTI-INFLAMMATORY, ANTIFUNGAL, ANTIPARASITIC, AND ANTICANCER ACTIVITY” (PHARMA CINQ, LLC, priority 2013, published 2025)
Like-named read-outs stand apart in the source and are kept apart here. Marks after values point to notes of the source that are not given here.

Key:
[1] = system: HCT-116 colon adenocarcinoma cells; test: Example Q: HCT-116 liver metastases of human colorectal cancer in nude mice; assay type: in vivo; conditions: 240 μmol/kg/day oral, 28 days
Text: A major cause of morbidity and mortality in patients with colorectal cancer is metastasis of the tumor into the liver; colorectal cancer can often be successfully resected from the primary site, but metastases to the liver are much less accessible to surgical treatment. A mouse model of colorectal cancer metastasis to the liver has been established, using HCT-116 colon adenocarcinoma cells injected into the spleen of athymic (nude) mice. The HCT-116 cancer cells spontaneously spread from the spleen into the liver via the circulation, and they form tumors in the liver (Ishizu, K., Sunose, N., Yamazaki, K., Tsuruo, T., Sadahiro, S., Makuuchi, H., and Yamori, T. Development and Characterization of a Model of Liver Metastasis Using Human Colon Cancer HCT-116. Biol. Pharm. Bull. 2007, 30(9):1779-1783).
Mice (female Hsd:athymic nude-Foxn1^nu) were anesthetized with xylazine/ketamine intraperitoneal injection, followed by incision approximately 10 mm on the left subcostal region (area disinfected with ethanol) to expose the peritoneum. The peritoneum was opened for about 8 mm near the spleen, and 2.5×10^6 cells in 50 μL PBS were injected into the spleen using a 30G needle. The spleen was repositioned, and the surgical area was closed using sutures and clips.
The day after receiving cells, mice were randomized into groups of five based upon body weight to provide groups with approximately equivalent mean body weight. Mice received a single, daily oral dose of test article or vehicle (1% hydroxypropylmethylcellulose) beginning 48 hours following cell injection into the spleen.
At study termination 28 days after HCT-116 cell injection, body weights were recorded, and spleens and livers were removed, weighed and fixed in 10% formalin. Livers were sectioned and stained; the relative areas of normal and tumor tissue were quantified in histology sections with quantitative planimetry software.

[2] = system: C. neoformans (serotype A) phagocytosed by THP-1-derived macrophages; test: Example M: phagocytosed Cryptococcus neoformans antifungal screen in THP-1-derived macrophages; assay type: cell-based; conditions: for inhibition of fungal growth after phagocytosis and lysis, in words: 0.5, 1 or 2 μM; for IC50: after macrophage phagocytosis and lysis
Procedure: Two concentrations of macrophages (1×10^5 and 2×10^5/well) and a high concentration of C. neoformans (4×10^6/well) (MOI values of 40 and 20 respectively) were tested in this experiment.
THP-1 cells were adjusted to 5×10^5/ml or 1×10^6/ml in cRPMI+PMA
200 μl was transferred to a flat-bottomed 96-well dish (1×10^5 and 2×10^5/well) (48 hrs at 37 C) Media was removed and fresh cRPMI+PMA added (further 24 hrs at 37 C)
C. neoformans cells in DPBS were opsonized with human serum (60 mins at 30 C)
The opsonized yeast was washed (DPBS) and resuspended at 1×10^7/ml or 2×10^7/ml in cRPMI. 100 μl added to macrophage plate (1×10^6 and 2×10^6/well) (4 hrs at 37 C) washed ×4 with DPBS 100 μl of cRPMI was added to each well (18 hrs at 37 C) Compound AC was added to some wells. Media was removed, no wash, 25 μl 0.05% Triton X-100 added to lyse cells (3 mins RT rocking) 125 μl YPD broth was added and the plate incubated (24 hrs at 30 C then 24 hrs at 37 C) C. neoformans growth was determined on a Spectrophotometer (600 nm) after 24 and 48 hours
THP-1 cells (p15) grown in cRPMI [RPMI (Lonza 12-115F) plus 10% ΔFBS (Lonza DE14-701F)] were counted on a hemacytometer. Cells were spun at 1,800 rpm, RT for 5 mins, supernatant aspirated, pellet disturbed then adjusted to 5.0×10^5/ml and 1.0×10^6/ml in cRPMI supplemented with 0.2 μg/ml phorbol 12-myristate 13-acetate (PMA) (1 mg/ml in DMSO Sigma P8139). 200 μl aliquots of each cell concentration were transferred to […] (half a plate) of a flat-bottomed 96-well dish (1×10^5 and 2×10^5/well) and placed in a 37 C incubator for 48 hours, media was then removed and 200 μl of fresh cRPMI+PMA added. The plate was incubated for an additional 24 hours at 37 C then processed for yeast uptake.
In parallel to macrophage preparation, C. neoformans cells were grown from a single colony in 20 ml YPD broth at 30 C overnight. Absorbance of 1:10 dilution of the overnight (ON) culture gave 0.89 OD at 600 nm. Estimated concentration of this stock was 4×10^8 cells/ml (2×10^8 cells/ml gave an OD 600 nm of 0.426 in an earlier study Cryptococcus macrophage development plate 3 ML113012). The cells were washed with DPBS once and resuspended in 2 ml DPBS. 230 μl of this stock (˜60×10^7 cells) was brought up to 500 μl with DPBS in an Eppendorf tube. For opsonization, 500 μl of human serum (SIGMA S7023) was added and the tube incubated at 30 C for 60 mins with orbital shaking. […] A 1:200 dilution of cells was counted (4.25×10^6/ml), equivalent to 8.5×10^8/ml for the 1× stock. 470 μl of the 1× stock was brought up to 10 ml with cRPMI for a final concentration of 4×10^7/ml.
Media was aspirated from the prepared macrophage plate and 100 μl of the opsonized fungal cell suspension added to the wells. Media without yeast was added to triplicate wells for each macrophage concentration to provide background readings. Three empty wells (no macrophages) were seeded with fungus to serve as the wash control. The plates were then incubated at 37 C for 4 hours then washed 4 times with DPBS (plates were shakes briefly after addition of DPBS to increase wash efficiency). 144 μl of cRPMI was added to each well and 6 μl of 12.5 μM, 25 μM and 50 μM stocks of compounds AM, BM, AH, and AC added in triplicate for final concentrations of 0.5 μM, 1 μM or 2 μM. The plate was incubated at 37 C, 5% CO2 for 18 hours. Media was removed, 25 μl of 0.05% Triton X-100 (SIGMA T-9284) in DPBS was added to each well and the plate rocked at RT for 3 min, to lyse the cells. 125 μl YPD broth (KD Medical YLF-3260) was then added to each well and the plate placed in a 30 C incubator. C. neoformans cell growth was determined by measuring absorbance at 600 nm on a Spectrophotometer (Spectra Max Plus using program SoftMax Pro) after […].

[3] = HCT-116 liver metastases, nude mice
[4] = Cryptococcus neoformans, read-out: IC50 value (μM) for inhibition of fungal growth, 1 × 10^5 macrophages
[5] = Cryptococcus neoformans, read-out: IC50 value (μM) for inhibition of fungal growth, 2 × 10^5 macrophages

| Compound | Final Body Weight Grams [1, 3] [NS Grams] | Liver Weight % of Body Weight [1, 3] [%] | Tumor Area % of Vehicle Group [1, 3] [% *] | Tumor Area % of Total Liver ([1]; HCT-116 liver metastases, nude mice, histology planimetry) [%] | inhibition of fungal growth after phagocytosis and lysis, in words [2] | IC50 [2, 4] [µM] | IC50 [2, 5] [µM] | excess of the Vehicle group's liver weight/body weight ratio over the treated group [1] [%] | area of liver invaded by metastatic cancer cells, in words ([1]; histology planimetry) | inhibition at 2 µM ([2]; Cryptococcus neoformans, Macrophage, at 2 μM, after phagocytosis, read-out: inhibition of the fungal growth) [%] |
| --- | --- | --- | --- | --- | --- | --- | --- | --- | --- | --- |
| CCCCCCOc1ccc(CNc2ccnc3ccccc23)cc1 [AA, N-[4-(Hexyloxy)benzyl]quinolin-4-amine] | 28.2 ± 1.5 | 5.3 ± 0.2 | 1.5 | 0.2 ± 0.26 | – | – | – | – | – | – |
| CCCCOCCCCCCCCCCNc1ccnc2ccccc12 [AM, N-(10-Butoxydecyl)quinolin-4-amine] | – | – | – | – | clear dose dependent inhibition of fungal growth after phagocytosis and lysis | 1.13 | 0.85 | – | – | – |
| c1ccc(Oc2cccc(CNc3ncnc4ccccc34)c2)cc1 [BM, N-(3-Phenoxybenzyl)quinazolin-4-amine] | – | – | – | – | clear dose dependent inhibition of fungal growth after phagocytosis and lysis | 1.8 | 1.31 | – | – | – |
| CCCCCCOc1cccc(CNc2ccnc3ccccc23)c1 [Compound AC, N-[3-(Hexyloxy)benzyl]quinolin-4-amine] | – | – | – | – | clear dose dependent inhibition of fungal growth after phagocytosis and lysis | 1.29 | 1.35 | 12 | markedly reduced the area of liver invaded by metastatic cancer cells | – |
| CCCCCCCCCCNc1ncnc2ccccc12 [Compound AH, N-(Decyl)quinazolin-4-amine] | – | – | – | – | clear dose dependent inhibition of fungal growth after phagocytosis and lysis | 0.29 | 0.25 | – | – | ~100 |
